This note sets out measurements from publication PMC2714839, “Evidence for a role of NTS2 receptors in the modulation of tonic pain sensitivity” (Molecular Pain, 2009).

Assay [1] has as its system formalin-induced nociceptive behaviors. In words: Formalin test, weighted pain score (A.U.C.) after intrathecal pretreatment. It is filed as in vivo. As to conditions: rat, i.t. 5 μg/kg; for reduction of pain behaviors in the tonic phase (phase 2, 21-60 min, A.U.C.) vs vehicle: 5 min before formalin.
Description: Experiments were performed with adult male Sprague-Dawley rats (250–300 g; Charles River, St-Constant, QC, Canada) kept on a 12 h light/dark cycle and allowed ad libitum access to food and water. Animals were individually acclimatized to Plexiglas enclosures for 3 consecutive days prior to testing. The formalin test was always performed by three different experimenters in a quiet room and between 08.00 AM and 12.00 PM to reduce any variation related to circadian rhythm.
Antinociception was assessed using the formalin test as a model of persistent pain. For this purpose, rats were placed for a 60-min habituation period in the experimentation room. Thereafter, rats received a 50 μl subcutaneous injection of diluted 2% formaldehyde (i.e. 5% formalin, Fisher Scientific, Montreal, QC, Canada) into the plantar surface of the right hind paw.
Following this, the rats were placed in clear plastic chambers (30 × 30 × 30 cm) positioned over a mirror angled at 45°, in order to allow an unobstructed view of the paws, and their behaviors were recorded for the next 60 min. […] Nocifensive behaviors were assessed using a weighed score as described previously [43, 44]. […] The weighted nociceptive score, ranging from 0 to 3, is calculated by multiplying the time spent in each category by its assigned weight category, summing these products and dividing by the total time for each 3 min block of time. The total area under the curve (A.U.C.) for the inflammatory phase (phase 2) was calculated between 21 to 60 min for each animal. Phase 2 was further subdivided in early (21–39 min) and late (40–60) phases and analyzed as separate events [45]. […] The cumulative time spent in both lifting (state 2) and flinching/licking/biting (state 3), reflecting behavioral reactions integrated at different CNS levels, were also determined during the inflammatory phase (21 to 60 min following formalin) [42].
Data are presented as means ± standard errors of the mean (S.E.M.). All calculations and statistical analysis were performed using Prism 4.0 and Instat 3.05 (Graph Pad Software, San Diego, CA, USA). Nociceptive scores over the 3 min time blocks were analyzed using a two-way analysis of variance for repeated measures, with comparisons between experimental groups and the control group at each time interval using Bonferroni's post hoc t-test. A one-way ANOVA followed by Dunnett's post hoc t-test was used to determine the significance of differences in the A.U.C. and in the time spent in states 2 and 3. A difference in responses between groups was considered significant with P values; * P < 0.05 and ** P < 0.01.
For assay [2] the test system is unchanged. In words: Formalin test, cumulative time in stereotypic behaviors (lifting; flinching/licking/biting). In kind it is in vivo. As to conditions: rat. On the procedure:
Experiments were performed with adult male Sprague-Dawley rats (250–300 g; Charles River, St-Constant, QC, Canada) kept on a 12 h light/dark cycle and allowed ad libitum access to food and water. Animals were individually acclimatized to Plexiglas enclosures for 3 consecutive days prior to testing. The formalin test was always performed by […] in a quiet room and between 08.00 AM and 12.00 PM to reduce any variation related to circadian rhythm. The experimental procedures in this study were approved by the Animal Care Committee of the University of Sherbrooke and were in accordance with policies and directives of the Canadian Council on Animal Care.
Behavioral experiments aimed at establishing the effects of NT analogs and NTS2-selective agonists on formalin-induced nocifensive behaviors. To this end, rats were lightly anesthetized with isoflurane (Abbott Laboratories, Montreal, QC, Canada) and injected intrathecally, at the L5-L6 intervertebral space, with either NT (6 μg/kg), NT69L (5 μg/kg), JMV-431 (5 to 60 μg/kg), or levocabastine (0.5 and 5 μg/kg) diluted in 30 μl of physiological saline (0.9% NaCl), 5 min before formalin administration. Control animals received physiological saline.
Antinociception was assessed using the formalin test as a model of persistent pain. […]
Following this, the rats were placed in clear plastic chambers (30 × 30 × 30 cm) positioned over a mirror angled at 45°, in order to allow an unobstructed view of the paws, and their behaviors were recorded for the next 60 min. […] Nocifensive behaviors were assessed using a weighed score as described previously. […] The weighted nociceptive score, ranging from 0 to 3, is calculated by multiplying the time spent in each category by its assigned weight category, summing these products and dividing by the total time for each 3 min block of time. The total area under the curve (A.U.C.) for the inflammatory phase (phase 2) was calculated between 21 to 60 min for each animal. Phase 2 was further subdivided in early (21–39 min) and late (40–60) phases and analyzed as separate events. Formalin-induced pain related behavior may also be quantified by monitoring the number and the duration of episodes of different behavioral endpoints. The cumulative time spent in both lifting (state 2) and flinching/licking/biting (state 3), reflecting behavioral reactions integrated at different CNS levels, were also determined during the inflammatory phase (21 to 60 min following formalin).
Data are presented as means ± standard errors of the mean (S.E.M.). […] Nociceptive scores over the 3 min time blocks were analyzed using a two-way analysis of variance for repeated measures, with comparisons between experimental groups and the control group at each time interval using Bonferroni's post hoc t-test. […]

The target in assay [3] is T1, rNTS2 (Rattus norvegicus, UniProt Q63384).
T1 construct: expressed in transfected cells; membrane homogenates
T1 sequence (Q63384 1-416): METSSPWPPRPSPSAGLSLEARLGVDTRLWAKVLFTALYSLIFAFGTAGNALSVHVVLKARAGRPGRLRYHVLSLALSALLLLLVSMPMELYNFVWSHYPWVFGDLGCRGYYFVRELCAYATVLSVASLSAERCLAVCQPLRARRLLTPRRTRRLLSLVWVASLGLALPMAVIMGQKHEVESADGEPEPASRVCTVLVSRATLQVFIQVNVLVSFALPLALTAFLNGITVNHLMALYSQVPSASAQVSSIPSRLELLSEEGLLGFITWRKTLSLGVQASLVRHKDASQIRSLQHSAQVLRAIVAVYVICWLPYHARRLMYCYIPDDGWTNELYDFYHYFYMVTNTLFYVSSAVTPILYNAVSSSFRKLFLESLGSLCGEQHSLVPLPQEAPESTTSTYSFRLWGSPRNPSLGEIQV
In words: Competition binding of [3H]-NT to HEK293 cell membranes expressing rNTS2. On the procedure: (§1) Cells were fed every 2 days with 20 ml of medium. 70–80% confluent HEK 293 cells were washed twice with phosphate-buffered saline solution, scraped into 50 mM Tris-HCl (pH 7.4) buffer containing 1 mM EDTA and 250 mM sucrose and centrifuged at 15,000 g for 12 min at 4°C. Pellets were then re-suspended in hypotonic TE buffer (50 mM Tris-HCl (pH 7.4) buffer containing 1 mM EDTA) and membrane homogenates were recovered by centrifugation for 30 min at 4°C. The final protein concentration was determined with the use of the BCA assay kit (Pierce Biotechnology Inc, Rockford, IL).
(§2) Binding was terminated by two successive additions of 3 ml of ice-cold buffer and filtering under vacuum through GF/B filters presoaked in binding buffer containing 0.2% polyethyleneimine (48-well Brandel Harvester). Filters were placed in scintillation vials containing 5 ml scintillation liquid (Ecolite) and then counted in a beta counter.

Assay [4] addresses T2, rNTS1 (Rattus norvegicus, UniProt P20789).
T2 construct: expressed in transfected cells; membrane homogenates
Description: Competition binding of [3H]-NT to HEK293 cell membranes expressing rNTS1. On the procedure:
as §1, §2

Assay [5] deals with c-fos. In words: Formalin-evoked c-fos-like immunoreactivity in lumbar spinal cord (L4-L5). It is filed as in vivo. As to conditions: rat. On the procedure:
At 45 min following formalin injection, rats were deeply anesthetized and perfused intraaortically with ice-cold 4% paraformaldehyde (Fisher Scientific, Montreal, QC, Canada) in 0.1 M PB, pH 7.4. The spinal cord was isolated and then cryoprotected overnight at 4°C in 30% sucrose in phosphate-buffered saline (PBS). Prior to tissue sectioning, an incision was made in the ventral horn of the contralateral side to allow spatial positioning of the spinal cord for further analysis. Transverse frozen sections (35-μm-thick) were then cut from the lumbar segment (L4-L5) of the spinal cord with a sliding microtome and processed by a free-floating slice immunohistochemistry procedure. After elimination of endogenous peroxidase activity with 0.3% hydrogen peroxide in PBS for 1 h, the tissue sections were rinsed three times in PBS and incubated for 1 h at RT in a blocking solution of 3% normal goat serum (NGS) and 0.3% Triton X-100 in PBS. After washing, free-floating sections were incubated overnight at RT with the rabbit anti-c-fos polyclonal antibody diluted 1:1000 in PBS (sc-52, Santa Cruz Biotechnology, Santa Cruz, CA, USA), containing 1% NGS and 0.3% Triton X-100. The tissue was then washed three times in PBS and transferred to a goat anti-rabbit biotinylated secondary IgG complex (1:200 in 1% NGS and 0.3% Triton X-100 in PBS; Vector, Burlingame, CA, USA) for 1 h at RT followed by exposing to avidin-biotin horseradish peroxydase complex (1:100; Vectastain ABC-Elite kit, Vector Laboratories, Burlington, ON, Canada) for 1 h at RT. After the final wash with PBS, the chromagen was developed using nickel intensified 3,3'-diaminobenzidine (DAB, 0.01%) and 0.3% H2O2. Finally, the sections were thoroughly rinsed with PBS, mounted onto slides, dehydrated in a series of graded alcohols, defatted in xylene, and placed on coverslips.
Sections were visually scanned and photographed using a bright-field microscope (Leica DM4000B; Leica Microsystems, Toronto, Canada). The individual sections were printed and overlaid with an acetate sheet on which the distribution of c-fos immunoreactive neurons was then plotted. […] For the quantification of c-fos labeled neurons, each section of the spinal cord was divided into four regions of interest: the superficial laminae (laminae I, IIo and IIi), the nucleus proprius (laminae III and IV), the neck of the dorsal horn (laminae V and VI) and the deep lamina X according to the cytoarchitectonic organization of the spinal cord. The number of c-fos immunoreactive neurons in the four defined regions was determined by averaging the counts made in 10–15 sections and expressed as mean ± S.E.M. of these values for all the rats in that treatment group for statistical analysis of the different experimental conditions. […] A Dunnett's t-test was applied to assess differences between the drug and vehicle groups. A value of P < 0.05 was considered statistically significant.

[6] abbreviates: i.t. 5 μg/kg, 45 min after formalin.

“And” between values parts separate entries of the source, which are not always exact repeats. Equal entries are not always repeated. Where two headings read alike, the source gives them in different places. Non-standard residues stand in square brackets, D forms with d. Residues, ends and D or L forms follow the SMILES beside them. Ala(indol-4-yl) = N[C@@H](Cc1cccc2[nH]ccc12)C(=O)O; NMeR = CN[C@@H](CCCNC(=N)N)C(=O)O; Tle = CC(C)(C)[C@H](N)C(=O)O

T2 sequence (P20789 whole entry): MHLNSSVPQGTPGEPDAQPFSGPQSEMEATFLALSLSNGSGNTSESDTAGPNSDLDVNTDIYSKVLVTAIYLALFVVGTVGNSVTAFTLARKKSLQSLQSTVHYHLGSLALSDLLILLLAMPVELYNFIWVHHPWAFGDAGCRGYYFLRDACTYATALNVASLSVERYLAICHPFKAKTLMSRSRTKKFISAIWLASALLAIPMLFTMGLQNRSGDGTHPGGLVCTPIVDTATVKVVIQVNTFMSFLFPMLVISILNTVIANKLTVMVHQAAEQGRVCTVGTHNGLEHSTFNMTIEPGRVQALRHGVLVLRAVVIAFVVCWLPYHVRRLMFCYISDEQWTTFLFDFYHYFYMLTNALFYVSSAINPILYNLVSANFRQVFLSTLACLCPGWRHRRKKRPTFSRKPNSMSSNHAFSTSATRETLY

For `C[C@@H]1CN([C@H]2CC[C@](C#N)(c3ccc(F)cc3)CC2)CC[C@]1(C(=O)O)c1ccccc1` [Levocabastine, levocabastine], in assay [1], the “decrease in A.U.C. in early phase 2 (21-39 min)” value was “no effect”; the “decrease in A.U.C. in late phase 2 (40-60 min)” value came to 48 ± 16%; the “reduction of pain behaviors in the tonic phase (phase 2, 21-60 min, A.U.C.) vs vehicle” value came to 29 ± 5%. Moreover, in assay [2] (i.t., all doses tested), the “effect on formalin-evoked licking/shaking/biting behaviors, phase 2” value was “do not reverse”. In assay [2] (i.t., maximum reached over the doses tested (JMV-431 5-60 μg/kg, levocabastine 0.5-5 μg/kg)), the “inhibition of cumulative time spent in lifting, phase 2 (21-60 min)” value is on record as 73 ± 5%. For the same molecule, the IC50 (in general, the concentration that gives 50% inhibition) in assay [3] (inhibition of 2 nM [3H]-NT binding, HEK293 cell membranes expressing rat NTS2, read-out: IC50 rNTS2) was 3 nM and 2.7 nM. Moreover, in assay [4] (read-out: IC50 rNTS1), the IC50 is greater than 10000 nM. Also, in assay [5] (setting [6]), the “reduction of contralateral c-fos immunoreactivity, lamina X” value was 98 ± 1%; the “reduction of contralateral c-fos immunoreactivity, laminae I-II” value came out at 74 ± 7%; the “reduction of contralateral c-fos immunoreactivity, laminae III-IV” value is on record as 72 ± 7%; the “reduction of contralateral c-fos immunoreactivity, laminae V-VI” value was 77 ± 5%. In assay [5] (setting [6]), the “reduction of number of c-fos-LI neurons, ipsilateral laminae I-II” value worked out at 26 ± 7%; the “reduction of number of c-fos-LI neurons, ipsilateral laminae III-IV” value came to 60 ± 5%; the “reduction of number of c-fos-LI neurons, ipsilateral laminae V-VI” value came to 53 ± 3%; the “reduction of number of c-fos-LI neurons, ipsilateral laminae X” value came to 56 ± 8%.
For `CC[C@H](C)[C@H](NC[C@H](Cc1ccc(O)cc1)NC(=O)[C@@H]1CCCN1C(=O)[C@H](CCCNC(=N)N)NC(=O)[C@H](CCCNC(=N)N)NC(=O)OC(C)(C)C)C(=O)N[C@@H](CC(C)C)C(=O)O` [JMV-431, Boc-Arg-ArgPro-Tyrø(CH2NH)-Ile-Leu-OH], the figures for the IC50 in assay [3] (IC50 rNTS2) and in assay [4] were 19 ± 3.2 nM and 4740 ± 135 nM, respectively.
For the molecule `CN[C@@H](CCCNC(=N)N)C(=O)N[C@@H](CCCCN)C(=O)N1CCC[C@H]1C(=O)N[C@@H](Cc1cccc2[nH]ccc12)C(=O)N[C@H](C(=O)N[C@@H](CC(C)C)C(=O)O)C(C)(C)C` [NT69L, N-methyl-Arg-Lys-Pro-L-neo-Trp-tert-Leu-Leu-OH] (H-[NMeR]KP[Ala(indol-4-yl)][Tle]L-OH; N-terminus assumed), in assay [1], the “decrease in A.U.C. in early phase 2 (21-39 min)” value came out at 70 ± 13%; the “decrease in A.U.C. in late phase 2 (40-60 min)” value is reported as 48% ± 19; the “reduction of pain behaviors in the tonic phase (phase 2, 21-60 min, A.U.C.) vs vehicle” value stood at 59 ± 13%. Besides, the “reduction of lifting time during the tonic phase” value in assay [2] (i.t. NT69L 5 μg/kg) is recorded as 74 ± 13%. Moreover, the “attenuation of flinching, licking and biting responses (maximum antagonism)” value in assay [2] (i.t. NT69L 5 μg/kg, tonic phase) is 70 ± 15%. Besides, the IC50 in assay [3] (IC50 rNTS2) was found to be 3.7 ± 0.4 nM. In assay [4], this molecule returned an IC50 of 2.2 ± 0.5 nM. In addition, in assay [5] (data not shown), the “effect on spinal nociceptive neuronal responses (c-fos) induced by formalin” value is reported as “attenuated”.
